“Also recorded” adds a separate entry of the source.
How the values were obtained:
[1] = tested on: cervical carcinoma HeLa cells; test: Cell proliferation assay (WST-8); type: cell-based, human; conditions: 10 nM kinase inhibitors, 10 μg/mL antibodies
Procedure: (§1) Cell proliferation was determined using an ELISA plate reader and the WST-8 kit (Dojindo technologies) following the manufacturer's instructions and using the formula: % survival rate=(Sample-Background)/(Negative control-Background). Lapatinib (MSKCC pharmacy) was ground using a mortar and pestle and suspended in DMSO as previously described. To determine statistical significance, the results were analyzed using one-way ANOVA using Prism 6.0.
(§2) For cell proliferation assays, 5,000 tumor cells were plated using RPMI-1640 supplemented with 10% FBS in a 96 well plate for 36 hours before being treated with lapatinib or the antibodies at the specified concentrations. Cell proliferation was determined using an ELISA plate reader and the WST-8 kit (Dojindo technologies) following the manufacturer's instructions and using the formula: % survival rate=(Sample-Background)/(Negative control-Background). Lapatinib (Memorial Sloan Kettering Cancer Center pharmacy) was ground using a mortar and pestle and suspended in DMSO as previously described (Chen et al., 2012, Molecular cancer therapeutics 11:660-669). To determine statistical significance, the results were analyzed using one-way ANOVA using Prism 6.0.
(§3) For tumor cell proliferation, 5,000 tumor cells were plated using RPMI-1640 supplemented with 10%, fetal bovine serum (“FBS”) in a 96 well plate for 36 hours before being treated with—kinase inhibitors or the antibodies at the specified concentration. Cell proliferation was determined using the cell counting WST-8 kit (Dojindo technologies) following the manufacturer's instructions and using the formula: % survival rate=(Sample-Background)(Negative control-Background). Lapatinib was ground using a mortar and pestle and suspended in DMSO as previously described (Chen et al., Molecular cancer therapeutics 2012; 11:660-9). To determine statistical significance, the results were analyzed using one-way ANOVA using Prism 6.0.

SCCHN cell line PCI-30 = test: Cell proliferation assay (WST-8); type: cell-based, human; conditions: 10 nM kinase inhibitors, 10 μg/mL antibodies
Procedure: as §1, §2, §3

[2] = tested on: osteosarcoma cell line U2OS; test: Cell proliferation assay (WST-8); type: cell-based, human; conditions: 10 nM kinase inhibitors, 10 μg/mL antibodies
Procedure: as §1, §2, §3

[3] = tested on: HER2(+) SCCHN PCI-13 cells; test: Blocking of HER2-BsAb T-cell cytotoxicity by trastuzumab or anti-CD3; type: cell-based, human; conditions: for effect of blocking antibody on HER2-BsAb induced T cell cytotoxicity: HER2-positive cells pre-incubated with blocking antibody (Examples 1, 2)
Procedure: (§4) The ^51Cr release assay was performed with effector T cells cultured in vitro in the presence of anti-CD3 and anti-CD28 for about 14 days. All target tumor cells were harvested with 2 mM EDTA in PBS, labeled with ^51Cr (Amersham, Arlington Height, IL) at 100 μCi/106 cells at 37° C. for 1 h. 5000 target cells/well were mixed with 50,000 effector cells (E:T=10:1) and BsAb antibodies in 96-well polystyrene round-bottom plates (BD Biosciences) to a final volume of 250 μl/well. The plates were incubated at 37° C. for 4 h. The released ^51Cr in supernatant was counted in a γ-counter (Packed Instrument, Downers Grove, IL). Percentage of specific release was calculated using the formula: (experimental cpm−background cpm)/(total cpm−background cpm)×100%, where cpm represented counts per minute of ^51Cr released. Total release was assessed by lysis with 10% SDS (Sigma, St Louis, Mo), and background release was measured in the absence of effector cells. EC50 was calculated using SigmaPlot software.

[4] = tested on: HCC1954 breast cancer xenograft; test: s.c. tumor plus i.v. effector cells xenograft model; type: in vivo, DKO mice; conditions: i.v. PBMC 7.5×10^6 once per week for 2 weeks, 100 μg i.v. twice per week for 4 weeks (Example 4)
Description: Three humanized mouse xenograft models were used: (1) intravenous tumor plus intravenous effector cells; (2) subcutaneous tumor plus subcutaneous effector cells; and (3) subcutaneous tumor plus intravenous effector cells. Subcutaneous xenografts were created with 5×10^6 cells suspended in Matrigel (Corning Corp, Tewksbury MA) and implanted in the flank of DKO mice. Effector peripheral blood mononuclear cell (PBMC) cells were purified from buffy coats purchased from the New York Blood Center. Prior to every experimental procedure, PBMCs were analyzed for their percentage of CD3, CD4, CD8 and CD56 cells to ensure consistency. […] Tumor size was measured using (1) hand-held TM900 scanner (Pieira, Brussels, BE); (2) Calipers; or (3) bioluminescence. Bioluminescence imaging was conducted using the Xenogen In Vivo Imaging System (IVIS) 200 (Caliper LifeSciences). Briefly, mice were injected intravenously with 0.1 mL solution of D-luciferin (Gold Biotechnology; 30 mg/mL stock in PBS). […]
Effector PBMC cells and ATCs were prepared as described above. Prior to every experimental procedure, PBMCs and ATCs were analyzed by FACS for their percentage of CD3, CD4, CD8 and CD56 cells to ensure consistency. […] Tumor size was measured using 1) hand-held TM900 scanner (Pieira, Brussels, BE), 2) Calipers, or 3) Bioluminescence. […]

naïve T cells = test: T cell proliferation (WST-8); type: cell-based, human; conditions: 67 nM antibody, 6 days
Procedure: For T cell proliferation, naïve T cells were purified from human PBMC using Pan T cell isolation kit (Miltenyi Biotec). 2×10^5 purified T cells were mixed with different antibodies in 96-well cell culture plate to a final volume of 250 μl/well. T cells were cultured and maintained in RPMI-1640 supplemented with 10% FBS in 37° C. for 6 days. T cell proliferation was quantitated using the WST-8 kit as described above.

HeLa = test: T-cell cytotoxicity, 51Cr release assay; type: cell-based, human; conditions: HeLa pre-treated with lapatinib
Procedure: as §4
Cell cytotoxicity was assayed by ^51Cr release as previously described (Xu et al., Cancer immunology research 2015; 3:266-77), and EC50 was calculated using SigmaPlot software. Effector PBMC cells were purified from buffy coats purchased from the New York Blood Center. […]

## C#Cc1cccc(Nc2ncnc3cc(OCCOC)c(OCCOC)cc23)c1 [erlotinib]
[1]
  sensitivity in proliferation assay: resistant
[1]; listed as Erlotinib
  sensitivity in proliferation assay: pan-resistant
SCCHN cell line PCI-30
  sensitivity in proliferation assay: resistant
[2]
  sensitivity in proliferation assay: minimal sensitivity; also recorded: resistant

## OKT3: CD3 specific blocking mAb
[3]
  effect of blocking antibody on HER2-BsAb induced T cell cytotoxicity: prevented

## Pembrolizumab
[4]
  tumor volume: no effect

## Atezolizumab
[4]
  tumor volume: no effect

## CCOc1cc2ncc(C#N)c(Nc3ccc(OCc4ccccn4)c(Cl)c3)c2cc1NC(=O)/C=C/CN(C)C [neratinib]
[1]
  sensitivity in proliferation assay: resistant
[1]; listed as Neratinib
  sensitivity in proliferation assay: pan-resistant
SCCHN cell line PCI-30
  sensitivity in proliferation assay: resistant
[2]
  sensitivity in proliferation assay: minimal sensitivity; also recorded: resistant

## huOKT3: humanized anti-CD3 OKT3 IgG1, bivalent
[3]
  effect of blocking antibody on HER2-BsAb induced T cell cytotoxicity: block
[3]; PCI-13, 0.1 μg/mL HER2-BsAb, 10 μg/mL blocking antibodies
  effect of blocking antibody on HER2-BsAb T-cell cytotoxicity: prevented; also recorded: abrogates
naïve T cells
  T cell proliferation in the absence of tumor targets: robust T cell proliferation

## CS(=O)(=O)CCNCc1ccc(-c2ccc3ncnc(Nc4ccc(OCc5cccc(F)c5)c(Cl)c4)c3c2)o1 [lapatinib]
HeLa
  effect of pretreatment on sensitivity to HER2-BsAb mediated cytotoxicity: enhances
[1]
  sensitivity in proliferation assay: no effect on cell proliferation; also recorded: resistant
[1]; listed as Lapatinib
  sensitivity in proliferation assay: pan-resistant
SCCHN cell line PCI-30
  sensitivity in proliferation assay: resistant
[2]
  sensitivity in proliferation assay: resistant
[2]; listed as Lapatinib
  sensitivity in proliferation assay: minimal sensitivity
